Strand notation (5' to 3'): a small letter for the sugar, then the base; units joined by * are phosphorothioate-linked, units joined directly phosphodiester-linked; [ ] holds rarer units or linkages, { } end groups; capitals alone tell only the bases. e = 2'-O-(2-methoxyethyl) (MOE); [5mC] = 5-methylcytosine; d = 2'-deoxy (DNA)
What was measured:
Type in all cases: cell-based
[1] = system: human Factor 11 mRNA; assay: Antisense inhibition of human Factor 11 in HepG2 cells, electroporation, 8,000 nM (Example 30); details: electroporation, 8,000 nM antisense oligonucleotide
Description: These microwalk gapmers were tested in vitro. Cultured HepG2 cells at a density of 20,000 cells per well were transfected using electroporation with 8,000 nM antisense oligonucleotide. After a treatment period of approximately 24 hours, RNA was isolated from the cells and Factor 11 mRNA levels were measured by quantitative real-time PCR. Factor 11 mRNA levels were adjusted according to total RNA content, as measured by RIBOGREEN. Results are presented as percent inhibition of Factor 11, relative to untreated control cells.
The chimeric antisense oligonucleotides in Table 44 were designed as 5-10-5 MOE, 5-8-5 and 6-8-6 MOE gapmers. The first two listed gapmers in Table 44 are the original gapmers (ISIS 416850 and ISIS 416858) from which ISIS 445493-445543 were designed via microwalk, and are designated by an asterisk. The 5-10-5 gapmers are 20 nucleotides in length, wherein the central gap segment is comprised of ten 2′-deoxynucleotides and is flanked on both sides (in the 5′ and 3′ directions) by wings comprising five nucleotides each. The 5-8-5 gapmers are 18 nucleotides in length, wherein the central gap segment is comprised of eight 2′-deoxynucleotides and is flanked on both sides (in the 5′ and 3′ directions) by wings comprising five nucleotides each. The 6-8-6 gapmers are 20 nucleotides in length, wherein the central gap segment is comprised of eight 2′-deoxynucleotides and is flanked on both sides (in the 5′ and 3′ directions) by wings comprising six nucleotides each. For each of the motifs (5-10-5, 5-8-5 and 6-8-6), each nucleotide in the 5′ wing segment and each nucleotide in the 3′ wing segment has a 2′-MOE modification. The internucleoside linkages throughout each gapmer are phosphorothioate (P=S) linkages. All cytidine residues throughout each gapmer are 5-methylcytidines. “Human Target start site” indicates the 5′-most nucleotide to which the gapmer is targeted in the human sequence. “Human Target stop site” indicates the 3′-most nucleotide to which the gapmer is targeted in the human sequence. Each gapmer listed in Table 44 is targeted to SEQ ID NO: 1 (GENBANK Accession No. NM_000128.3). Each gapmer is Table 44 is also fully cross-reactive with the rhesus monkey Factor 11 gene sequence, designated herein as SEQ ID NO: 274 (exons 1-15 GENBANK Accession No. NW_001118167.1). ‘Rhesus monkey start site’ indicates the 5′-most nucleotide to which the gapmer is targeted in the rhesus monkey sequence. ‘Rhesus monkey stop site’ indicates the 3′-most nucleotide to which the gapmer is targeted to the rhesus monkey sequence.

[2] = system: human Factor 11 mRNA; assay: Antisense inhibition of human Factor 11 in HepG2 cells, lipofectin, 75 nM (Example 1); details: 75 nM antisense oligonucleotide, ~24 h, relative to untreated control cells
Outline: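 HepG2 cells transfected via lipofectin with 75 nM antisense oligonucleotide (5-10-5 MOE gapmers, 20-mers, phosphorothioate, 5-methylcytidines), treated ~24 h. Factor 11 mRNA quantified by real-time PCR, normalised to RIBOGREEN total RNA; percent inhibition versus untreated cells.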

[3] = system: human Factor 11 mRNA; assay: Antisense inhibition of human Factor 11 in HepG2 cells by microwalk gapmers, lipofectin, 75 nM (Example 3)
Outline: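 HepG2 cells (10,000/well) were transfected via lipofectin with 75 nM 20-mer MOE gapmers (phosphorothioate, 5-methyl-C) for about 24 h. Factor 11 mRNA was measured by qRT-PCR, normalized to RIBOGREEN total RNA, and given as percent inhibition versus untreated cells.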

[4] = system: human Factor 11 mRNA; assay: Dose-dependent inhibition of human Factor 11 in HepG2 cells, lipofectin 9.375-75 nM (Example 4)
Description: (§1) Cells were plated at a density of 10,000 cells per well and transfected using lipofectin reagent with 9.375 nM, 18.75 nM, 37.5 nM and 75 nM concentrations of antisense oligonucleotide, as specified in Table 9. After a treatment period of approximately 16 hours, RNA was isolated from the cells and Factor 11 mRNA levels were measured by quantitative real-time PCR. Human Factor 11 primer probe set RTS 2966 was used to measure mRNA levels. Factor 11 mRNA levels were adjusted according to total RNA content, as measured by RIBOGREEN. Results are presented as percent inhibition of Factor 11, relative to untreated control cells.

[5] = system: human Factor 11 mRNA; assay: Dose-dependent inhibition of human Factor 11 in HepG2 cells, electroporation 0.7-20 uM (Example 4)
Description: as §1, with “The gapmers were also transfected via electroporation and their dose dependent inhibition of human Factor 11 mRNA was measured. Cells” for “Cells”, “20,000” for “10,000”, “via electroporation” for “using lipofectin reagent”, “0.7 μM, 2.2 μM, 6.7 μM,” for “9.375 nM, 18.75 nM, 37.5 nM”, “20 μM” for “75 nM”, “10.” for “9.”

[6] = gapmers targeted to SEQ ID NO: 1
[7] = gapmers targeted to SEQ ID NO: 2

Substance	Percent inhibition of human Factor 11 mRNA levels [1] [%]	% inhibition [2, 6] [%]	other results
445501 (antisense eA*eT*eT*eG*eG*eT*dG*d[5mC]*dA*d[5mC]*dA*dG*dT*dT*eT*e[5mC]*eT*eG*eG*e[5mC]) [compound 445501]	83		
445542 (antisense eT*eG*eG*e[5mC]*eA*dG*d[5mC]*dG*dG*dA*d[5mC]*dG*dG*e[5mC]*eA*eT*eT*eG) [compound 445542]	83		
445510 (antisense eG*e[5mC]*eG*eG*eA*e[5mC]*dG*dG*d[5mC]*dA*dT*dT*dG*dG*eT*eG*e[5mC]*eA*e[5mC]*eA) [compound 445510]	88		
445540 (antisense eG*e[5mC]*eA*eG*e[5mC]*dG*dG*dA*d[5mC]*dG*dG*d[5mC]*dA*eT*eT*eG*eG*eT) [compound 445540]	74		
445497 (antisense eG*eT*eG*e[5mC]*eA*e[5mC]*dA*dG*dT*dT*dT*d[5mC]*dT*dG*eG*e[5mC]*eA*eG*eG*e[5mC]) [compound 445497]	81		
445525 (antisense eG*eG*eT*eG*e[5mC]*dA*d[5mC]*dA*dG*dT*dT*dT*d[5mC]*eT*eG*eG*e[5mC]*eA) [compound 445525]	85		
445518 (antisense eA*eG*eT*eT*eT*d[5mC]*dT*dG*dG*d[5mC]*dA*dG*dG*e[5mC]*e[5mC]*eT*e[5mC]*eG) [compound 445518]	75		
445539 (antisense e[5mC]*eA*eG*e[5mC]*eG*dG*dA*d[5mC]*dG*dG*d[5mC]*dA*dT*eT*eG*eG*eT*eG) [compound 445539]	79		
445536 (antisense e[5mC]*eG*eG*eA*e[5mC]*dG*dG*d[5mC]*dA*dT*dT*dG*dG*eT*eG*e[5mC]*eA*e[5mC]) [compound 445536]	82		
445512 (antisense e[5mC]*eA*eG*e[5mC]*eG*eG*dA*d[5mC]*dG*dG*d[5mC]*dA*dT*dT*eG*eG*eT*eG*e[5mC]*eA) [compound 445512]	79		
445527 (antisense eT*eT*eG*eG*eT*dG*d[5mC]*dA*d[5mC]*dA*dG*dT*dT*eT*e[5mC]*eT*eG*eG) [compound 445527]	70		
445511 (antisense eA*eG*e[5mC]*eG*eG*eA*d[5mC]*dG*dG*d[5mC]*dA*dT*dT*dG*eG*eT*eG*e[5mC]*eA*e[5mC]) [compound 445511]	77		
445528 (antisense eA*eT*eT*eG*eG*dT*dG*d[5mC]*dA*d[5mC]*dA*dG*dT*eT*eT*e[5mC]*eT*eG) [compound 445528]	73		
445493 (antisense eA*e[5mC]*eA*eG*eT*eT*dT*d[5mC]*dT*dG*dG*d[5mC]*dA*dG*eG*e[5mC]*e[5mC]*eT*e[5mC]*eG) [compound 445493]	69		
413474 (antisense eA*eG*e[5mC]*eA*eA*d[5mC]*d[5mC]*dG*dG*dG*dA*dT*dG*dA*dT*eG*eA*eG*eT*eG) [compound 413474]		84	% inhibition ([3]; HepG2 cells, lipofectin, gapmers targeted to nucleobases 1018 to 1042 of SEQ ID NO: 1): 93%; IC50 [4]: 0.028 µM; percent inhibition of Factor 11 at 9.375 nM ([4]; 9.375 nM, relative to untreated control cells): 29%; percent inhibition of Factor 11 at 18.75 nM ([4]; 18.75 nM, relative to untreated control cells): 44%; percent inhibition of Factor 11 at 37.5 nM ([4]; 37.5 nM, relative to untreated control cells): 57%; percent inhibition of Factor 11 at 75 nM ([4]; 75 nM, relative to untreated control cells): 67%; IC50 [5]: 6.9 µM; percent inhibition of Factor 11 at 0.7 μM ([5]; 0.7 μM, relative to untreated control cells): 0%; percent inhibition of Factor 11 at 2.2 μM ([5]; 2.2 μM, relative to untreated control cells): 5%; percent inhibition of Factor 11 at 6.7 μM ([5]; 6.7 μM, relative to untreated control cells): 52%; percent inhibition of Factor 11 at 20 μM ([5]; 20 μM, relative to untreated control cells): 81%
412204 (antisense eT*eT*e[5mC]*eA*eT*dG*dT*d[5mC]*dT*dA*dG*dG*dT*d[5mC]*d[5mC]*eA*e[5mC]*eA*eT*eA) [compound 412204]		74	% inhibition ([3]; HepG2, lipofectin, ~24 h, gapmers targeted to nucleobases 656 to 704 of SEQ ID NO: 1): 76%
412209 (antisense eG*eT*eG*e[5mC]*eT*dT*d[5mC]*dA*dG*dT*dA*dG*dA*d[5mC]*dA*eA*eA*eT*eG*eT) [compound 412209]		91	
412251 (antisense e[5mC]*eT*eA*eG*e[5mC]*dA*dT*dT*dT*dT*d[5mC]*dT*dT*dA*d[5mC]*eA*eA*eA*e[5mC]*eA) [compound 412251]		58	
412238 (antisense e[5mC]*eG*e[5mC]*eA*eA*dA*dA*dT*d[5mC]*dT*dT*dA*dG*dG*dT*eG*eA*e[5mC]*eT*e[5mC]) [compound 412238]		71	
413490 (antisense e[5mC]*eT*eA*e[5mC]*e[5mC]*d[5mC]*d[5mC]*dA*dT*dA*dG*dA*dA*dA*d[5mC]*eA*eG*eT*eG*eA) [compound 413490]		57	
413504 (antisense eG*eG*e[5mC]*eT*eT*dG*dT*dG*dT*dG*dT*dG*dG*dT*d[5mC]*eA*eA*eT*eA*eT) [compound 413504]			% inhibition [2, 7]: 54%
412248 (antisense e[5mC]*e[5mC]*eA*eG*eA*dT*dG*d[5mC]*d[5mC]*dA*dG*dA*d[5mC]*d[5mC]*dT*e[5mC]*eA*eT*eT*eG) [compound 412248]		53	
413527 (antisense e[5mC]*e[5mC]*eA*eT*eA*dA*dT*dG*dA*dA*dG*dA*dA*dG*dG*eA*eA*eG*eG*eG) [compound 413527]			% inhibition [2, 7]: 52%
412197 (antisense eA*e[5mC]*eA*e[5mC]*eA*dT*dT*d[5mC]*dA*d[5mC]*d[5mC]*dA*dG*dA*dA*eA*e[5mC]*eT*eG*eA) [compound 412197]		45	
412233 (antisense eT*eG*eT*e[5mC]*eT*d[5mC]*dT*dG*dA*dG*dT*dG*dG*dG*dT*eG*eA*eG*eG*eT) [compound 412233]		64	
412228 (antisense eA*eT*eG*eT*eG*dT*dA*dT*d[5mC]*d[5mC]*dA*dG*dA*dG*dA*eT*eG*e[5mC]*e[5mC]*eT) [compound 412228]		71	
412230 (antisense eG*eA*eT*eT*eT*dT*dG*dG*dT*dG*dG*dT*dA*d[5mC]*dA*e[5mC]*eT*e[5mC]*eA*eT) [compound 412230]		52	
412215 (antisense eA*eT*eT*e[5mC]*eT*dT*dT*dG*dG*dG*d[5mC]*d[5mC]*dA*dT*dT*e[5mC]*e[5mC]*eT*eG*eG) [compound 412215]		81	% inhibition ([3]; HepG2 cells, lipofectin, gapmers targeted to nucleobases 1062 to 1091 of SEQ ID NO: 1): 82%

— patent publication US20230263822A1, “MODULATION OF FACTOR 11 EXPRESSION” (Ionis Pharmaceuticals, Inc., priority 2008, published 2023)
